We go through 23 compounds from patent publication US9133224B2, “Macrocyclic kinase inhibitors” (OSI Pharmaceuticals, LLC, priority 2010, dated 2015).

Molecules are shown by their SMILES. Where two headings read alike, the source gives them in different places. Where only a bound is given, the exact number is not on record here.

One assay deals with T1, FAK (Homo sapiens, UniProt Q05397).
T1 construct: endogenous in cells; host or cells: U87MG glioblastoma cells (ATCC HTB-14)
In words: Cell-based capture ELISA for inhibition of FAK autophosphorylation [pY397] in U87MG cells. Here is the method: Cell-Based Assays for Inhibition of FAK Autophosphorylation: MiaPaCa2 and U87MG
The ability of compounds to inhibit FAK autophosphorylation was determined in a cell-based capture ELISA assay using U87MG glioblastoma cells (ATCC, Cat # HTB-14) and the FAK [pY397]ELISA kit from Invitrogen (KHO0441). The assay determines the ability of compounds to block endogenous autophosphorylation of FAK stimulated by fibronectin. Cells plated on fibronectin coated 96-well plate were incubated with compounds at various concentrations in the complete growth medium for 2 h. Cell lysates were then prepared and FAK protein was captured onto a FAK antibody-coated 96-well ELISA plate. The phosphotyrosine content of FAK protein was then monitored by quantitation of degree of binding of an antibody that recognizes only the phosphorylated FAK at Y397 within the captured protein.
Reagents Provided in Biosource FAK [pY397]
Cultures of U87MG cells growing in MEM (Earles) containing non-essential amino acids, sodium pyruvate (1 mM), […] (1%) and 10% fetal bovine serum were detached by trypsin-EDTA and suspended in cell growth medium. Cells were then plated onto fibronectin (600 ng/well)-coated 96-well flat bottom plates at 1.7×10^4 cells per well in 60 uL cell growth medium and incubated overnight at 37° C. in a CO2 incubator.
Compound dilutions were prepared from 10 mM DMSO stocks by dilution in cell growth medium, the final concentration of DMSO in the assay being 0.6%. […] The cells were then incubated with compounds at 37° C. for 2 h. The medium was removed by aspiration and cells were lysed by addition of 20 uL of ice-cold cell lysis buffer per well. The plates were kept on ice for 20 min and 50 uL of standard diluent was added to each well. 50 uL of cell lysate from each well was transferred to respective wells in an assay plate and 50 uL of detection antibody was added to all wells except H1-H6 which were no antibody control wells. Capture assay plates were incubated overnight in a cold room.
Following incubation of the cell lysates and detection antibodies in the ELISA plate, the wells were washed 4 times with 120 uL of wash buffer (1×), then 100 uL of diluted HRP conjugated antibody (1:100 dil in diluent) was added to each well, and the plate was incubated at RT for 30 min. The wells were then washed for 4 times with 120 uL of wash buffer (1×) and 100 uL of chromogen was added to each well and incubated in the dark at RT for 5-10 min. 100 uL of stop solution was added to each well and the absorbance measured at 450 nm, 0.1 s.
Comparison of the assay signals obtained in the presence of compound with those of positive and negative controls (cells with no compound and no detection antibody being added), allows degree of inhibition of phospho-FAK [Y397] to be determined over a range of compound concentrations. […] The assay as described above was modified to determine the effect of inclusion of 50% (v/v) mouse or human plasma. In this assay, the compound plate was prepared as 2× concentration in 100 uL of 100% mouse or human plasma, and 60 uL of this was added to 60 uL of culture medium and incubated at 37° C. incubator for 2 h. The rest of the assay was carried out as described above.
(In an ELISA, binding on a coated surface is turned into a signal by an enzyme label.)

The target in assay [1] is T2, GST-tagged full-length FAK enzyme (PTK2) (Homo sapiens, UniProt Q05397).
T2 construct: GST-tagged full-length FAK enzyme (PTK2, Invitrogen PV4085); GST; purchased Invitrogen PV4085
T2 sequence (Q05397 whole entry): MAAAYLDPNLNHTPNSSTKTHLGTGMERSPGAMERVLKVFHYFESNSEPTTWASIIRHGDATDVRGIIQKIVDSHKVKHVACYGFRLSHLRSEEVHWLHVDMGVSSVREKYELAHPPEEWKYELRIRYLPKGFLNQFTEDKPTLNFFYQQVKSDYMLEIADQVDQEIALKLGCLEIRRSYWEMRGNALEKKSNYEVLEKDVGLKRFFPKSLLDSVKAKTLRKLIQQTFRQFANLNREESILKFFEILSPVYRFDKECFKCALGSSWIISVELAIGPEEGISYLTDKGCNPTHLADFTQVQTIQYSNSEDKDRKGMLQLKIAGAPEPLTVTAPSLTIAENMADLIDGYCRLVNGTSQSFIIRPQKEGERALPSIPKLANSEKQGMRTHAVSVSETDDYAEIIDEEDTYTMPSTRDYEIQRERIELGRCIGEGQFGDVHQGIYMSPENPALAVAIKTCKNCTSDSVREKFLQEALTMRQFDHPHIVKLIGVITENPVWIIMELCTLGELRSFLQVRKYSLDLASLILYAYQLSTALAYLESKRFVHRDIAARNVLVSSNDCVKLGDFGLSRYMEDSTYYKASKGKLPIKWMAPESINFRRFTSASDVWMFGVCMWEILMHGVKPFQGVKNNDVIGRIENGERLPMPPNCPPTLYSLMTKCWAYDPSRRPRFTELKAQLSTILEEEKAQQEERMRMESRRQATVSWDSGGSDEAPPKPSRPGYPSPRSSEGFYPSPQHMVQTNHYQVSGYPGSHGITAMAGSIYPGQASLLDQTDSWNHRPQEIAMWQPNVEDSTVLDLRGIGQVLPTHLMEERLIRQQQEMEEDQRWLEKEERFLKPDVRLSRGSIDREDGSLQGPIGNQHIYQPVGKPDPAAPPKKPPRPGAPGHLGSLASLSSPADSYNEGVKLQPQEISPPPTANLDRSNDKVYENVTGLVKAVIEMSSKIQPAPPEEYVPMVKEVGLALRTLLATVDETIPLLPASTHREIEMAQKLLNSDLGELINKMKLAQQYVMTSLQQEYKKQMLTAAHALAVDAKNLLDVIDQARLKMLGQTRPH
In words: Biochemical Omnia Assay (FAK). Here is the method: Biochemical Omnia Assay Protocol
The Omnia Assay (Invitrogen) has been optimized for GST-tagged full-length FAK enzyme (PTK2, Invitrogen PV4085).
All compound concentrations were assayed in duplicate. Initial compound dilutions were prepared at 100× concentration in 100% DMSO from a 10 mM stock solution. Compounds were further diluted 1:25 in assay buffer resulting in a 4× concentrated solution.
In running the assay, 5 μL of the above 4× concentrated compound solution (or 4% DMSO for positive controls) was added to the assay plate followed by 5 μL of a solution containing peptide (40 μM) and ATP (200 μM) in assay buffer. The reaction was initiated by the addition of 10 μL of FAK (50 nM) in assay buffer, or assay buffer alone for negative controls. The increase in fluorescence due to peptide phosphorylation was monitored continuously as a function of time using a Spectramax M5 plate reader (Molecular Devices) equipped with SoftMax Pro 5.2 software.
IC50 values were determined from the slopes of the linear progress curves by non-linear curve-fitting using GraphPad Prism 5 (GraphPad Software, Inc.).

[2] abbreviates: 50% (v/v) human plasma, mean IC50, read-out: FAK Activity Mechanistic (U87MG) HP.
The mark [3] stands for this setting: 50% (v/v) mouse plasma, mean IC50, read-out: FAK Activity Mechanistic (U87MG) MP.
The mark [4] stands for this setting: no plasma present, mean IC50, read-out: FAK Activity Mechanistic (U87MG) NP.
Where [5] appears, read: mean IC50, [ATP] = 50uM, read-out: FAK Activity Biochemical OMNIA, [ATP] = 50uM.

T1 sequence (Q05397 whole entry): as above

On to `CCOP1(=O)Cc2ccc(c(OC)c2)Nc2ncc(C(F)(F)F)c(n2)Nc2ccc(nc2C(=O)NC)-c2cn(nc2OC)CCCO1` (racemic) [Example 48], for which the IC50 at FAK (setting [2]) was < 400 nM; at FAK (setting [3]), 400 to 4000 nM; at FAK (setting [4]), < 400 nM; in assay [1], < 400 nM.
`CCOP1(=O)Cc2ccc(c(OC)c2)Nc2ncc(C(F)(F)F)c(n2)Nc2ccc(nc2C(=O)NC)-c2cn(nc2Cl)CCCO1` (racemic) [Example 49]: the IC50 at FAK (setting [2]) is < 400 nM; on FAK (setting [3]), 400 to 4000 nM; on FAK (setting [4]), < 400 nM; in assay [1] (setting [5]), < 400 nM.
Consider `CCOP1(=O)Cc2ccc(c(OC)c2)Nc2ncc(C(F)(F)F)c(n2)Nc2ccc(nc2C(=O)NC)-c2cnn(c2)C(C)(C)CCO1` (racemic) [Example 50], for which the IC50 (at FAK (setting [2]); on FAK (setting [4]); in assay [1] (setting [5])) was < 400 nM in each case.
For `CCOP1(=O)Cc2ccc(c(OC)c2)Nc2ncc(C(F)(F)F)c(n2)Nc2ccc(nc2C(=O)NC)-c2cnn(c2Cl)CCCO1` (racemic) [Example 51], the IC50 was < 400 nM on FAK (setting [2]), 400 to 4000 nM at FAK (setting [3]), < 400 nM at FAK (setting [4]) and < 400 nM in assay [1].
For `CCOP1(=O)Cc2ccc(c(OC)c2)Nc2ncc(C(F)(F)F)c(n2)Nc2ccc(nc2C(=O)NC)-c2cn(nc2C#N)CCCO1` (racemic) [Example 52], the IC50 (at FAK (setting [4]); in assay [1]) was < 400 nM each time.
Take `CCOP1(=O)Cc2ccc(c(OC)c2)Nc2ncc(C(F)(F)F)c(n2)Nc2ccc(nc2C(=O)NC)-c2cnn(c2C#N)CCCO1` (racemic) [Example 53]: the IC50 at FAK (setting [4]) is > 4000 nM; in assay [1] (setting [5]), 400 to 4000 nM.
In the case of `CCOP1(=O)Cc2ccc(c(OC)c2Cl)Nc2ncc(C(F)(F)F)c(n2)Nc2ccc(nc2C(=O)NC)-c2cnn(c2)CCCO1` (racemic) [Example 54], the results for the IC50 (at FAK (setting [2]); on FAK (setting [4]); in assay [1]) were 400 to 4000 nM, < 400 nM and < 400 nM, respectively.
For `CCOP1(=O)Cc2ccc(c(OC)c2Cl)Nc2ncc(C(F)(F)F)c(n2)Nc2ccc(nc2C(=O)NC)-c2cnn(c2)CC2(COC2)CO1` (racemic) [Example 55], the IC50 was < 400 nM at FAK (setting [2]), 400 to 4000 nM at FAK (setting [3]), < 400 nM on FAK (setting [4]) and < 400 nM in assay [1].
Regarding `CCOP1(=O)Cc2cc(OC)c(cc2Cl)Nc2ncc(C(F)(F)F)c(n2)Nc2ccc(nc2C(=O)NC)-c2cnn(c2)CCCO1` (racemic) [Example 56], the IC50 on FAK (setting [2]) was > 4000 nM; at FAK (setting [3]), 400 to 4000 nM; at FAK (setting [4]), < 400 nM; in assay [1], < 400 nM.
Take `CCOP1(=O)Cc2cc(OC)c(cc2Cl)Nc2ncc(C(F)(F)F)c(n2)Nc2ccc(nc2C(=O)NC)-c2cnn(c2)CC2(COC2)CO1` (racemic) [Example 57]: the IC50 at FAK (setting [2]) is 400 to 4000 nM; on FAK (setting [4]), < 400 nM; in assay [1] it was < 400 nM.
For `CCOP1(=O)Cc2ccc(c(Cl)c2)Nc2ncc(C(F)(F)F)c(n2)Nc2ccc(nc2C(=O)NC)-c2cnn(c2)CC2(COC2)CO1` (racemic) [Example 58], the IC50 (at FAK (setting [2]); at FAK (setting [4]); in assay [1]) was < 400 nM each time.
As for `CCCP1(=O)Cc2ccc(c(OC)c2)Nc2ncc(C(F)(F)F)c(n2)Nc2ccc(cc2C(=O)NC)-c2cnn(c2)CCCO1` (racemic) [Example 66], the IC50 (on FAK (setting [2]); at FAK (setting [3]); on FAK (setting [4]); in assay [1] (setting [5])) was < 400 nM each time.
For the compound `CCP1(=O)Cc2ccc(c(OC)c2)Nc2ncc(C(F)(F)F)c(n2)Nc2ccc(nc2C(=O)NC)-c2cnn(c2)CCCO1` (racemic) [Example 67], the IC50 (at FAK (setting [2]); on FAK (setting [3]); on FAK (setting [4]); in assay [1] (setting [5])) was < 400 nM each time.
Turning to `CNC(=O)c1nc2ccc1Nc1nc(ncc1C(F)(F)F)Nc1ccc(cc1OC)CP(=O)(C(C)C)OCCCn1cc-2cn1` (racemic) [Example 68], the IC50 (at FAK (setting [2]); on FAK (setting [3]); on FAK (setting [4]); in assay [1] (setting [5])) was < 400 nM in each case.
On to `CCOP1(=O)Cc2ccc(c(OC)c2)Nc2ncc(C(F)(F)F)c(n2)Nc2ccc(nc2C(=O)NC)-c2cnn(c2)CCCO1` (single isomer, unassigned) [Example 6B], for which the IC50 (at FAK (setting [2]); at FAK (setting [4]); in assay [1]) was < 400 nM throughout.
Turning to `CCOP1(=O)Cc2ccc(c(OC)c2)Nc2ncc(C(F)(F)F)c(n2)Nc2ccc(nc2C(=O)NC)-c2cnn(c2)CC(C)CO1` (single isomer, unassigned) [Example 18], the IC50 (at FAK (setting [2]); on FAK (setting [4]); in assay [1] (setting [5])) was < 400 nM in each case.
As for `CCOP1(=O)Cc2ccc(c(Cl)c2)Nc2ncc(C(F)(F)F)c(n2)Nc2ccc(nc2C(=O)NC)-c2cnn(c2)CCCO1` (single isomer, unassigned) [Example 24A], the IC50 at FAK (setting [2]) was > 4000 nM; on FAK (setting [3]), 400 to 4000 nM; at FAK (setting [4]), < 400 nM; in assay [1] (setting [5]), < 400 nM.
In the case of `CCOP1(=O)Cc2ccc(c(OC)c2)Nc2ncc(C(F)(F)F)c(n2)Nc2ccc(nc2C(=O)NC)-c2cn(nc2C)CCCO1` (single isomer, unassigned) [Example 34A], the values for the IC50 (on FAK (setting [2]); at FAK (setting [4]); in assay [1] (setting [5])) were 400 to 4000 nM, < 400 nM and < 400 nM, respectively.
Turning to `CCOP1(=O)Cc2ccc(c(OC)c2)Nc2ncc(C(F)(F)F)c(n2)Nc2ccc(nc2C(=O)NC)-c2cnn(c2C)CCCO1` (single isomer, unassigned) [Example 35A], the IC50 was 400 to 4000 nM on FAK (setting [2]), < 400 nM at FAK (setting [4]) and < 400 nM in assay [1] (setting [5]).
Consider `CCOP1(=O)Cc2ccc(c(OC)c2)Nc2ncc(C(F)(F)F)c(n2)Nc2ccc(nc2C(=O)NC)-c2cnn(c2C)CCCO1` (single isomer, unassigned) [Example 35B], for which the IC50 (at FAK (setting [2]); at FAK (setting [4]); in assay [1] (setting [5])) was < 400 nM in each case.
With `CCCP1(=O)Cc2ccc(c(OC)c2)Nc2ncc(C(F)(F)F)c(n2)Nc2ccc(nc2C(=O)NC)-c2cnn(c2)CCCO1` (single isomer, unassigned) [Example 37A], the IC50 is 400 to 4000 nM on FAK (setting [2]), 400 to 4000 nM at FAK (setting [3]), < 400 nM at FAK (setting [4]) and < 400 nM in assay [1] (setting [5]).
On to `CCOP1(=O)Cc2ccc(c(OC)c2)Nc2ncc(C(F)(F)F)c(n2)Nc2ccc(nc2C(=O)NC)-c2cnn(c2)CC2(COC2)CO1` (single isomer, unassigned) [Example 44A], for which the IC50 (at FAK (setting [2]); on FAK (setting [4]); in assay [1]) was < 400 nM in each case.
Turning to `CCNC(=O)c1nc2ccc1Nc1nc(ncc1C(F)(F)F)Nc1ccc(cc1OC)CP(=O)(OCC)OCC1(COC1)Cn1cc-2cn1` (single isomer, unassigned) [Example 45A], the IC50 is 400 to 4000 nM on FAK (setting [2]), < 400 nM at FAK (setting [4]) and < 400 nM in assay [1].
